Patent US9090600B2, “Fungicidal 4-substituted-3-{phenyl[(heterocyclylmethoxy)imino]methyl}-1,2,4-oxadizol-5(4H)-one derivatives” (BAYER INTELLECTUAL PROPERTY GMBH, priority 2011, dated 2015)
Marks after values point to notes of the source that are not given here.

Conditions: pH 2.7

Q: Which LogP does the source give for `Nc1cccc(CON=C(c2ccccc2)c2noc(=O)[nH]2)n1` (mixture of isomers) [Example 96] here?
A: 1.2 [a]

Q: For `Cc1cccc(C(=NOCc2cccc(N)n2)c2noc(=O)[nH]2)c1` (mixture of isomers) [Example 121], which LogP is on record?
A: 1.47 [a]

Q: For `C#CCCOC(=O)Nc1cccc(CON=C(C(N)=NO)c2ccccc2)n1` (mixture of isomers) [Example V-1], which LogP is on record?
A: 2.1 [a]

Q: For `CC(C)(C)OC(=O)Nc1cccc(CON=C(C(N)=NO)c2ccccc2F)n1` (mixture of isomers) [Example V-5], which LogP is on record?
A: 2.68 [a]

Q: Which LogP does the source give for `COc1cccc(C(=NOCc2cccc(N)n2)C(N)=NO)c1` (mixture of isomers) [Example V-6] here?
A: 0.58 [a]

Q: Which LogP does the source give for `Cc1cccc(C(=NOCc2cccc(N)n2)C(N)=NO)c1` (mixture of isomers) [Example V-7] here?
A: 0.75 [a]

Q: Which LogP does the source give for `CC(C)(C)OC(=O)Nc1cccc(CON=C(C(N)=NO)c2ccc(F)cc2)n1` (mixture of isomers) [Example V-8] here?
A: 2.68 [a]

Q: With `NC(=NO)C(=NOCc1cccc(N)n1)c1ccccc1` (mixture of isomers) [Example V-9] as the molecule, how does the LogP read?
A: 0.39 [a]

Q: Which LogP does the source give for `NC(=NO)C(=NOCc1csc(N)n1)c1ccccc1Cl` (mixture of isomers) [Example V-10] here?
A: 0.73 [a]

Q: For `CC(C)(C)OC(=O)Nc1cccc(CON=C(C(N)=NO)c2ccccc2)n1` (mixture of isomers) [Example V-11], which LogP is on record?
A: 2.54 [a]

Q: With `NC(=NO)C(=NOCc1cccc(N)n1)c1cccc(F)c1` (mixture of isomers) [Example V-12] as the molecule, how does the LogP read?
A: 0.56 [a]

Q: With `COc1ccc(C(=NOCc2cccc(NC(=O)OC(C)(C)C)n2)C(N)=NO)cc1` (mixture of isomers) [Example V-13] as the molecule, how does the LogP read?
A: 2.51 [a]

Q: Which LogP does the source give for `CC(C)(C)OC(=O)Nc1cccc(CON=C(C(N)=NO)c2ccccc2)n1` (mixture of isomers) [Example V-14] here?
A: 2.57 [a]

Q: Which LogP does the source give for `Cc1ccc(C(=NOCc2csc(N)n2)C(N)=NO)cc1` (mixture of isomers) [Example V-15] here?
A: 0.89 [a]

Q: For `CC(C)C1(C(=O)Nc2cccc(CO/N=C(/c3ccccc3)c3noc(=O)n3C)n2)CC1(Cl)Cl` (racemic) [Example 371], which LogP is on record?
A: 4.35 [a]

Q: With `Cc1ccc(/C(=N/OCc2csc(NC(=O)C3COc4ccccc4O3)n2)c2noc(=O)n2C)cc1` (racemic) [Example 392] as the molecule, how does the LogP read?
A: 3.9 [a]

Q: Which LogP does the source give for `CC#CCC(C)OC(=O)Nc1cccc(CO/N=C(/c2ccccc2)c2noc(=O)n2C)n1` (racemic) [compound 455] here?
A: 3.89 [a]

Q: Which LogP does the source give for `CCCCC(CC)COC(=O)Nc1cccc(CO/N=C(/c2ccccc2)c2noc(=O)n2C)n1` (racemic) [compound 463] here?
A: 5.54 [a]

Q: Which LogP does the source give for `Cn1c(/C(=N\OCc2cccc(NC(=O)OCC3COC(=O)O3)n2)c2ccccc2)noc1=O` (racemic) [compound 474] here?
A: 2.75 [a]

Q: Which LogP does the source give for `CC(CC1CC1)OC(=O)Nc1cccc(CO/N=C(/c2ccccc2)c2noc(=O)n2C)n1` (racemic) [compound 475] here?
A: 4.32 [a]

Q: Which LogP does the source give for `C=CCC(C)OC(=O)Nc1cccc(CO/N=C(/c2ccccc2)c2noc(=O)n2C)n1` (racemic) [compound 479] here?
A: 4.01 [a]

Q: Which LogP does the source give for `C#CCCOC(=O)Nc1cccc(CO/N=C(/c2ccccc2)c2noc(=O)[nH]2)n1` [Example 22] here?
A: 3.09 [a]

Q: With `Cn1c(/C(=N\OCc2csc(NC(=O)COc3ccccc3F)n2)c2ccccc2)noc1=O` [Example 28] as the molecule, how does the LogP read?
A: 3.51 [a]

Q: Which LogP does the source give for `COc1ccccc1OCC(=O)Nc1cccc(CO/N=C(/c2ccccc2)c2noc(=O)n2C)n1` [Example 31] here?
A: 3.8 [a]

Q: For `Cn1c(/C(=N\OCc2csc(NC(=O)COc3ccc(F)cc3)n2)c2ccccc2)noc1=O` [Example 38], which LogP is on record?
A: 3.53 [a]

Q: With `CCCCCOC(=O)Nc1nc(CO/N=C(/c2ccc(C)cc2)c2noc(=O)n2C)cs1` [Example 41] as the molecule, how does the LogP read?
A: 4.41 [a]

Q: For `CC(C)CCCOC(=O)Nc1cccc(CO/N=C(/c2ccccc2)c2noc(=O)n2C)n1` [Example 45], which LogP is on record?
A: 4.81 [a]

Q: For `Cn1c(/C(=N\OCc2cccc(NC(=O)OCCc3cccc(Br)c3)n2)c2ccccc2)noc1=O` [Example 49], which LogP is on record?
A: 4.61 [a]

Q: Which LogP does the source give for `CC(Cc1ccccc1)OC(=O)Nc1cccc(CO/N=C(/c2ccccc2)c2noc(=O)n2C)n1` (stereo not shown) [Example 60] here?
A: 4.49 [a]

Q: For `CC(Oc1cccc(Cl)c1)C(=O)Nc1cccc(CO/N=C(/c2ccccc2)c2noc(=O)n2C)n1` (stereo not shown) [Example 64], which LogP is on record?
A: 4.38 [a]

Q: With `Cn1c(/C(=N\OCc2cccc(NC(=O)COc3ccc(Br)cc3)n2)c2ccccc2)noc1=O` [Example 65] as the molecule, how does the LogP read?
A: 4.2 [a]

Q: With `Cn1c(/C(=N\OCc2cccc(NC(=O)COc3ccc(F)cc3)n2)c2ccccc2)noc1=O` [Example 66] as the molecule, how does the LogP read?
A: 3.73 [a]

Q: Which LogP does the source give for `COc1cccc(OC(C)C(=O)Nc2cccc(CO/N=C(/c3ccccc3)c3noc(=O)n3C)n2)c1` (stereo not shown) [Example 69] here?
A: 3.97 [a]

Q: For `Cc1ccccc1OCC(=O)Nc1cccc(CO/N=C(/c2ccccc2)c2noc(=O)n2C)n1` [Example 76], which LogP is on record?
A: 4.17 [a]

Q: With `Cn1c(/C(=N\OCc2csc(N)n2)c2ccccc2Cl)noc1=O` [Example 90] as the molecule, how does the LogP read?
A: 1.72 [a]

Q: Which LogP does the source give for `Cn1c(/C(=N\OCc2cccc(NC(=O)COC3CCCC3)n2)c2ccccc2)noc1=O` [Example 94] here?
A: 4.04 [a]

Q: Which LogP does the source give for `Cn1c(/C(=N\OCc2cccc(NC(=O)OC(C)(C)C)n2)c2ccccc2F)noc1=O` [Example 97] here?
A: 3.92 [a]

Q: For `Cn1c(/C(=N\OCc2cccc(NC(=O)COc3cccc(Cl)c3)n2)c2ccccc2)noc1=O` [Example 105], which LogP is on record?
A: 4.1 [a]

Q: For `COc1ccccc1OC(C)C(=O)Nc1cccc(CO/N=C(/c2ccccc2)c2noc(=O)n2C)n1` (stereo not shown) [Example 115], which LogP is on record?
A: 4.15 [a]

Q: With `Cn1c(/C(=N\OCc2cccc(NC(=O)COc3ccccc3F)n2)c2ccccc2)noc1=O` [Example 125] as the molecule, how does the LogP read?
A: 3.76 [a]

Q: With `CC(OCc1ccccc1)C(=O)Nc1nc(CO/N=C(/c2ccccc2)c2noc(=O)n2C)cs1` (stereo not shown) [Example 126] as the molecule, how does the LogP read?
A: 3.85 [a]

Q: With `Cc1cccc(OC(C)C(=O)Nc2cccc(CO/N=C(/c3ccccc3)c3noc(=O)n3C)n2)c1` (stereo not shown) [Example 128] as the molecule, how does the LogP read?
A: 4.35 [a]

Q: For `Nc1cccc(CON=C(c2cccc(F)c2)c2noc(=O)[nH]2)n1` [Example 129], which LogP is on record?
A: 1.35 [a]

Q: For `CC(C)(C)OC(=O)Nc1cccc(CO/N=C(/c2ccccc2)c2noc(=O)[nH]2)n1` [Example 135], which LogP is on record?
A: 3.76 [a]

Q: For `COc1cccc(/C(=N/OCc2cccc(N(C(=O)OC(C)(C)C)C(=O)OC(C)(C)C)n2)c2noc(=O)n2C)c1` [Example 141], which LogP is on record?
A: 4.44 [a]

Q: With `COc1cccc(/C(=N/OCc2cccc(NC(=O)OC(C)CC(C)C)n2)c2noc(=O)n2C)c1` (stereo not shown) [Example 149] as the molecule, how does the LogP read?
A: 4.72 [a]

Q: Which LogP does the source give for `CCCCCOC(=O)Nc1nc(CO/N=C(/c2cccc(F)c2)c2noc(=O)n2C)cs1` [Example 150] here?
A: 4.19 [a]

Q: Which LogP does the source give for `CC(OCc1ccccc1)C(=O)Nc1cccc(CO/N=C(/c2ccccc2)c2noc(=O)n2C)n1` (stereo not shown) [Example 156] here?
A: 4.15 [a]

Q: With `COc1ccc(/C(=N/OCc2cccc(N)n2)c2noc(=O)n2C)cc1` [Example 157] as the molecule, how does the LogP read?
A: 1.35 [a]

Q: With `Cn1c(/C(=N\OCc2csc(NC(=O)COc3ccccc3Br)n2)c2ccccc2)noc1=O` [Example 159] as the molecule, how does the LogP read?
A: 3.89 [a]

Q: For `CCCCC(C)(C)C(=O)Nc1nc(CO/N=C(/c2ccccc2)c2noc(=O)n2C)cs1` [Example 160], which LogP is on record?
A: 4.48 [a]

Q: With `Cn1c(/C(=N\OCc2cccc(NC(=O)SC(C)(C)C)n2)c2ccccc2)noc1=O` [Example 162] as the molecule, how does the LogP read?
A: 4.39 [a]
